Measurements: patent publication US20120029187A1, “HALOALKYLSULFONANILIDE DERIVATIVE” (Nissan Chemical Industries, Ltd., priority 2009, published 2012)

Key:
Type in all cases: in vivo
barnyardgrass [1] = experiment: Test Example 1: herbicidal effects in preemergence treatment under submerged conditions; conditions: dose 2.52 g/a
In short: (§1)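 Alluvial soil was flooded to 4 cm, sown with barnyardgrass, bulrush and ducksalad, and planted with 2.5-leaf rice seedlings. On the seeding day, water-diluted emulsifiable concentrates were applied to the water surface at set doses (g/a). After three weeks in a 25 to 30° C. greenhouse, mortality was scored 0–5.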

bulrush [2] = experiment: as above; conditions: dose 2.52 g/a
In short: as §1

ducksalad [3] = experiment: as above; conditions: dose 2.52 g/a
In short: as §1

transplanted rice = experiment: Test Example 1: preemergence treatment under submerged conditions, effect on crop; conditions: dose 2.52 g/a
In short: as §1

barnyardgrass [4] = experiment: Test Example 2: herbicidal effects during the vegetation period under submerged conditions; conditions: treatment during the vegetation period under submerged conditions; dose 2.52 g/a
In short: (§2)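 Barnyardgrass, bulrush and ducksalad were co-sown in alluvial soil flooded to 4 cm and grown in a greenhouse at 25 to 30° C. At the 1- or 2-leaf stage, water-diluted emulsifiable concentrates went onto the water surface at set doses (g/a). Herbicidal effect was scored three weeks later on a graded scale.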

bulrush [5] = experiment: as above; conditions: treatment during the vegetation period under submerged conditions; dose 2.52 g/a
In short: as §2

ducksalad [6] = experiment: as above; conditions: treatment during the vegetation period under submerged conditions; dose 2.52 g/a
In short: as §2

Italian ryegrass [7] = experiment: Test Example 3: herbicidal effects in soil treatment; conditions: dose 6.3 g/a
In short: (§3)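 Seeds were sown in sterilized diluvial soil and covered with about 1.5 cm of soil. Compounds, formulated as emulsifiable concentrates and diluted with water, were sprayed evenly over the soil surface at set doses in g/a. Herbicidal effect was scored on a rating scale three weeks later.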

barnyardgrass [8] = experiment: as above; conditions: dose 6.3 g/a
In short: as §3

common chickweed [9] = experiment: as above; conditions: dose 6.3 g/a
In short: as §3

common lambsquater [10] = experiment: as above; conditions: dose 6.3 g/a
In short: as §3

common ragweed [11] = experiment: as above; conditions: dose 6.3 g/a
In short: as §3

giant foxtail [12] = experiment: as above; conditions: dose 6.3 g/a
In short: as §3

large crabgrass [13] = experiment: as above; conditions: dose 6.3 g/a
In short: as §3

redroot pigweed [14] = experiment: as above; conditions: dose 6.3 g/a
In short: as §3

water foxtail [15] = experiment: as above; conditions: dose 6.3 g/a
In short: as §3

wild oat [16] = experiment: as above; conditions: dose 6.3 g/a
In short: as §3

Italian ryegrass [17] = experiment: Test Example 4: herbicidal effect in foliage treatment; conditions: dose 6.3 g/a, three weeks after application
In short: (§4)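 Herbicidal effect was rated on an evaluation scale three weeks after treatment. Plants had been raised 14 days at 25 to 30° C in sterilized diluvial soil, then received foliar sprays of emulsifiable concentrate diluted in water at predetermined doses expressed as g per are.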

barnyardgrass [18] = experiment: as above; conditions: dose 6.3 g/a, three weeks after application
In short: as §4

beadstraw = experiment: as above; conditions: dose 6.3 g/a, three weeks after application
In short: as §4

common chickweed [19] = experiment: as above; conditions: dose 6.3 g/a, three weeks after application
In short: as §4

common lambsquater [20] = experiment: as above; conditions: dose 6.3 g/a, three weeks after application
In short: as §4

common ragweed [21] = experiment: as above; conditions: dose 6.3 g/a, three weeks after application
In short: as §4

giant foxtail [22] = experiment: as above; conditions: dose 6.3 g/a, three weeks after application
In short: as §4

large crabgrass [23] = experiment: as above; conditions: dose 6.3 g/a, three weeks after application
In short: as §4

redroot pigweed [24] = experiment: as above; conditions: dose 6.3 g/a, three weeks after application
In short: as §4

water foxtail [25] = experiment: as above; conditions: dose 6.3 g/a, three weeks after application
In short: as §4

wild oat [26] = experiment: as above; conditions: dose 6.3 g/a, three weeks after application
In short: as §4

SMILES: CCOC(=O)N(c1ccccc1CN1COC(C)CC1=O)S(=O)(=O)C(F)(F)F (stereo not shown) [II-7]
- A: barnyardgrass, herbicidal effect (evaluation scale 0-5) (barnyardgrass [1]): 5 (mortality of 90% or above (nearly complete death))
- B: bulrush, herbicidal effect (evaluation scale 0-5) (bulrush [2]): 5 (mortality of 90% or above (nearly complete death))
- C: ducksalad, herbicidal effect (evaluation scale 0-5) (ducksalad [3]): 5 (mortality of 90% or above (nearly complete death))
- a: transplanted rice, effect on crop (evaluation scale 0-5) (transplanted rice): 0 (mortality of less than 5% (almost ineffective))
- A: barnyardgrass, herbicidal effect (evaluation scale 0-5) (barnyardgrass [4]): 5 (mortality of 90% or above (nearly complete death))
- B: bulrush, herbicidal effect (evaluation scale 0-5) (bulrush [5]): 5 (mortality of 90% or above (nearly complete death))
- C: ducksalad, herbicidal effect (evaluation scale 0-5) (ducksalad [6]): 4 (mortality of at least 70% and less than 90%)
- H: Italian ryegrass, herbicidal effect (evaluation scale 0-5) (Italian ryegrass [7]): 2 (mortality of at least 20% and less than 40%)
- A: barnyardgrass, herbicidal effect (evaluation scale 0-5) (barnyardgrass [8]): 5 (mortality of 90% or above (nearly complete death))
- N: common chickweed, herbicidal effect (evaluation scale 0-5) (common chickweed [9]): 4 (mortality of at least 70% and less than 90%)
- L: common lambsquater, herbicidal effect (evaluation scale 0-5) (common lambsquater [10]): 5 (mortality of 90% or above (nearly complete death))
- J: common ragweed, herbicidal effect (evaluation scale 0-5) (common ragweed [11]): 4 (mortality of at least 70% and less than 90%)
- E: giant foxtail, herbicidal effect (evaluation scale 0-5) (giant foxtail [12]): 5 (mortality of 90% or above (nearly complete death))
- D: large crabgrass, herbicidal effect (evaluation scale 0-5) (large crabgrass [13]): 5 (mortality of 90% or above (nearly complete death))
- K: redroot pigweed, herbicidal effect (evaluation scale 0-5) (redroot pigweed [14]): 0 (mortality of less than 5% (almost ineffective))
- G: water foxtail, herbicidal effect (evaluation scale 0-5) (water foxtail [15]): 5 (mortality of 90% or above (nearly complete death))
- F: wild oat, herbicidal effect (evaluation scale 0-5) (wild oat [16]): 2 (mortality of at least 20% and less than 40%)
- H: Italian ryegrass, herbicidal effect (Italian ryegrass [17]): 3 (mortality of at least 40% and less than 70%)
- A: barnyardgrass, herbicidal effect (barnyardgrass [18]): 5 (mortality of 90% or above (nearly complete death))
- O: beadstraw, herbicidal effect (beadstraw): 3 (mortality of at least 40% and less than 70%)
- N: common chickweed, herbicidal effect (common chickweed [19]): 2 (mortality of at least 20% and less than 40%)
- L: common lambsquater, herbicidal effect (common lambsquater [20]): 5 (mortality of 90% or above (nearly complete death))
- J: common ragweed, herbicidal effect (common ragweed [21]): 5 (mortality of 90% or above (nearly complete death))
- E: giant foxtail, herbicidal effect (giant foxtail [22]): 5 (mortality of 90% or above (nearly complete death))
- D: large crabgrass, herbicidal effect (large crabgrass [23]): 5 (mortality of 90% or above (nearly complete death))
- K: redroot pigweed, herbicidal effect (redroot pigweed [24]): 0 (mortality of less than 5% (almost ineffective))
- G: water foxtail, herbicidal effect (water foxtail [25]): 5 (mortality of 90% or above (nearly complete death))
- F: wild oat, herbicidal effect (wild oat [26]): 0 (mortality of less than 5% (almost ineffective))
